Reference: PubChem BioAssay AID463074 (Broad Institute, 2010)
Activity calls are given as the source filed them.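 How the source made its calls: active means AC50 no more than tenfold above the top dose tested, or full inhibition at every dose with a flat fit (cut at about 19 µM in these data); inconclusive means flat curve fit with inhibition between 30% and 70%, or poor fit; inactive means AC50 more than tenfold above the top dose tested.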

Test system: HMLE_sh_eGFP viability, CellTiter-Glo luminescence, 72 h
Assay: viability loss of HMLE_sh_eGFP cells – cell-based, luminescence, counter-screen for HMLE_sh_ECad selective toxicity project, dose response (AID 463074);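 further: counterscreen control line to flag general toxicity for the HMLE_sh_ECad screen; potency for loss of viability as luminescence drops below DMSO wells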

SMILES | AC50
CCc1ccc(-c2cc3c(=O)n(CC(=O)NCCN4CCCCC4C)nc(C)n3n2)cc1 (stereo not given) | 5.23 µM
CC(C)(C)c1cc(C=C(C#N)C#N)cc(C(C)(C)C)c1O | 3.08 µM
CC(C)Oc1ccc(C(=O)/C=C2/C(=O)Nc3ccccc32)cc1 | 6.4 µM
COc1cc(CNCCc2c[nH]c3ccccc23)ccc1OCc1ccccc1F | 3.64 µM
Cc1nc(Nc2ccc(Cl)cc2Cl)sc1C(=O)Nc1ccccc1 | 11.5 µM
COc1ccc(Cc2nnc(N/N=C/c3ccc(O)cc3O)[nH]c2=O)cc1OC | 8.14 µM
CC(C)=CCc1c(O)cc2c(=O)c3ccc(O)cc3oc2c1O | 6.87 µM
CCOc1cc(S(=O)(=O)Nc2ccc(CC)cc2)ccc1Cl | 7.02 µM
Cc1cccc(C(=O)Nc2ccc(C(=O)Nc3ccc(O)cc3)cc2)c1 | 5.08 µM
C=CCOc1cccc(/C=C2\C(=O)N(Cc3ccc(C)cc3)C(C)=C2C(=O)OC)c1 | 7.24 µM
COc1cc(C2NCC(c3ccc(Cl)cc3Cl)c3c2[nH]c2ccccc32)cc(OC)c1OC (stereo not given) | 18.7 µM
S=c1[nH]nc(COc2ccccc2)n1/N=C/C(Cl)=C/c1ccccc1 | 3.55 µM
CCCC(=O)NC(=S)Nc1cccc(Cl)c1N1CCCC1 | 4.25 µM
O=C(Nc1ccc(Nc2ccccc2)cc1)c1cccc(F)c1 | 17.6 µM
O=c1c2ccccc2nc(/C=C/c2ccc(Br)cc2)n1CCO | 16.6 µM
COC(=O)c1cccc(NC(=O)Nc2ccc(Cl)c(Cl)c2)c1 | 11.4 µM
Cc1cc2nnc(SCC(=O)NCc3ccco3)n2c2ccccc12 | 4.5 µM
Cc1ccc(C(=O)CSc2nc(-c3ccccc3)ccc2C#N)cc1 | 2.47 µM
O=C(C[C@@H]1C/C=C/CC[C@H](Cc2ccc(F)cc2)C(=O)OC[C@@H](Cc2ccccc2)NC1=O)N[C@H](CO)Cc1ccccc1 | 1.56 µM
CCN(CC)CCCNC(=S)N1CCN(c2nc(-c3ccccc3)cs2)CC1 | 5.65 µM
FC(F)(F)c1cc(CCN2CCNC[C@H]2Cc2cccc3ccccc23)cc(C(F)(F)F)c1 | 3.53 µM
CCN(CC)c1ccc(/C=N/NC(=O)CCC(=O)NCc2ccccc2)c(O)c1 | 8.23 µM
O=C(CSc1nnc(-c2ccccc2O)n1Cc1ccccc1)NNC(=O)c1ccccc1O | 3.22 µM
Cc1ccc(N/N=C/c2c(O)n(-c3ccccc3)c(=O)[nH]c2=O)cc1 | 3.87 µM
NC1=NC[C@@H](CC2CCCCC2)N1CCc1cc(C(F)(F)F)cc(C(F)(F)F)c1 | 2.74 µM
OC1CCN(c2cc(-c3ccccc3)nc3cc(-c4ccc(F)cc4)nn23)CC1 | 7.31 µM
Cc1noc(C)c1COc1cccc(C(=O)Nc2ccc(OCc3ccccc3)cc2)c1 | 15.5 µM

SMILES | AC50
O=C(Nc1ccc(Nc2ccccc2)cc1)Nc1ccccc1Cl | 3.44 µM
COc1ccc(Nc2nc(-c3cccc([N+](=O)[O-])c3)nc3ccccc23)cc1 | 17.8 µM
O=C(Nc1ccon1)c1nc[nH]c1C(=O)NCc1ccccc1 | 1.77 µM
Cc1cc(C(=O)Nc2nc3c(s2)CCCC3)cs1 | > 19.5 µM (inactive)
O=C(NC1CONC1=O)OCC(Cl)(Cl)Cl (stereo not given) | > 19.5 µM (inactive)
CCCC(C)c1nnc(NC(=O)COc2ccc3c(c2)OCO3)s1 (stereo not given) | 9.04 µM
O=C(CN1CCN(c2ccc(O)cc2)CC1)Nc1ccc(SC(F)F)cc1 | 6.17 µM
COc1ccc(-c2nn(-c3ccccc3)cc2C(=O)N(C)CC(=O)Nc2cccc(F)c2)cc1 | 15 µM
CCC(C)c1ccc(NC(=O)C2CC3CCC2C3)cc1 (stereo not given) | 4.98 µM
Cc1ccc(/C=C/C(=O)NCC2COc3ccccc3O2)o1 (stereo not given) | > 19.5 µM (inactive)
CCSc1nnc(-c2sc3nnc(-c4ccccc4)c(-c4ccccc4)c3c2N)o1 | 0.539 µM
COc1ccc2c(c1)C(=O)[C@H](O)[C@@H](c1ccc(OC)c(Br)c1)O2 | 3.61 µM
COc1cc(CNc2ccc(CNc3ncn[nH]3)cc2)ccc1OCc1ccccc1 | 0.708 µM
COc1ccccc1OCCN1CSC(=S)N(C)C1 | 5.24 µM
O=C(Nc1cnn(C23CC4CC(CC(C4)C2)C3)c1)c1cc(-c2ccccc2)on1 | 11.4 µM
COc1c(OC(C)=O)ccc(/C=C/c2ccc3cccc(OCc4ccccc4)c3n2)c1[N+](=O)[O-] | 3.37 µM
C=CCSC(=C(C#N)C#N)c1cc2c([nH]1)CCCC2 | 13.5 µM
Cc1cn(-c2cc(C(=O)Nc3ccc(C)c(NC(=O)C(=O)c4c[nH]c5ccccc45)c3)cc(C(F)(F)F)c2)cn1 | 3.5 µM
CCOC(=S)SCC(=O)Nc1nc(-c2ccc(Br)cc2)cs1 | 3.54 µM
Cc1cc(/C=N/n2c(COc3ccccc3)nc3ccccc3c2=O)c(O)c([N+](=O)[O-])c1 | > 10 µM (inactive)
O=C(C1CCCN(S(=O)(=O)c2ccc([N+](=O)[O-])cc2)C1)N1CCCCC1 (stereo not given) | > 19.5 µM (inactive)
C/C(=N\N=C(/N)SC1CC(=O)N(c2ccc(Cl)c(Cl)c2)C1=O)c1cccs1 (stereo not given) | 7.3 µM
CN(C)c1ccc(/C=C2\CCC/C(=C\c3ccccc3)C2=O)cc1 | 5.47 µM
CCOC(=O)c1c(NC(=O)C(c2ccccc2)c2ccccc2)sc2c1C1CCN2CC1 | 2.84 µM
FC(F)(F)c1cccc(Nc2ncnc3ccccc23)c1 | 1.75 µM
Cc1cc(C)c(NC(=O)CSCc2c(C)noc2C)c(C)c1 | > 19.5 µM (inactive)
Cc1cc(C(=O)N/N=C/c2cc(Br)cc(Br)c2OC(=O)c2cccc(F)c2)n[nH]1 | 3.3 µM

SMILES | AC50
Cc1cc(Nc2cccc(F)c2)nc(-c2ccccc2O)n1 | 6.41 µM
CCN1CCN(c2cc(C(C)(C)C)nc3c(-c4ccccc4)c(C)nn23)CC1 | 6.81 µM
COc1ccc(-c2sc3cc(OC)c(OC)cc3c2-c2ccc(O)cc2)cc1 | 3.7 µM
O=S(=O)(NC1CC(NS(=O)(=O)OCC(Cl)(Cl)Cl)C2CCCCC12)OCC(Cl)(Cl)Cl (stereo not given) | 1.47 µM
COc1cccc(-c2sc3ccccc3c2-c2ccc(OCCN3CCOCC3)cc2)c1 | 4.3 µM
CC(NCC(O)COCCC12CC3CC(CC(C3)C1)C2)c1ccccc1 (stereo not given) | 3.32 µM
Cc1ccc(S(=O)(=O)N2[C@@H](c3ccc(C(C)(C)C)cc3)C(C(=O)O)=CC[C@H]2c2cccc(Cl)c2)cc1 | 4.26 µM
CCc1c(C2(O)CCCCC2)[nH]c2c(C(=O)OC)cc(Cl)cc12 | 2.69 µM
Cc1cccc(CN2CCN(C(c3ccccc3)c3ccc(Cl)cc3)CC2)c1 (stereo not given) | 4.76 µM
Clc1ccc(COC(Cn2ccnc2)c2ccc(Cl)cc2Cl)c(Cl)c1 (stereo not given) | 6.47 µM
COc1ccc(-c2sc3ccccc3c2C#CC2(O)CCCCC2)cc1 | 5.38 µM
Cn1cccc1-c1nc2ccccc2n1Cc1ccccc1 | 13.6 µM
Cc1ccc(S(=O)(=O)N(C)c2ccc(OCc3cccc(C)c3)cc2)cc1 | 1.99 µM
Cc1ccc(NCc2ccc([N+](=O)[O-])s2)cc1 | > 19.5 µM (inactive)
CC(=O)Nc1ccc(N=Cc2c(O)c(C(=O)Nc3ccccc3)cc3ccccc23)cc1 | 4.21 µM
CC(C)(C)c1cc(-c2nc(N)nc(N)n2)c(O)c(C(C)(C)C)c1 | 3.57 µM
OC(COc1cccc2ccccc12)CN1CCN(c2ccc(Cl)cc2)CC1 (stereo not given) | 7.09 µM
Cc1cccc(NC(=S)NCC(C)CSc2ccc(Cl)cc2)c1 (stereo not given) | 7.05 µM
O=C(CSc1nc2nc(-c3cccs3)cc(C(F)(F)F)c2c(=O)[nH]1)Nc1c(F)c(F)c(F)c(F)c1F | 3.43 µM
CCc1ccc(N(CC(=O)Nc2nc3ccc(C)cc3s2)S(=O)(=O)c2c(C)noc2C)cc1 | 6 µM
COc1ccc(N=N/C(=C\O)C(=O)c2cccs2)cc1 | 5.35 µM
FC(F)(F)c1ccc(C2[C@H]3CN(Cc4cccnc4)[C@H](c4ccccc4)C34CC2(c2cccnc2)C4)cc1 (stereo not given in full) | 3.67 µM
COc1cc(OC)cc(-c2nnc(SCC(=O)N(Cc3ccccc3)C(C)(C)C)o2)c1 | 2.74 µM
Cc1ccc(-c2csc3ncnc(-n4cnc5ccccc54)c23)cc1 | 4.28 µM
C=C(C)Cn1c(SCC(=O)N/N=C/c2c(O)ccc3ccccc23)nc2ccccc2c1=O | 5.62 µM
CC1(C)CC[C@]2(C(=O)O)CC[C@]3(C)C(=CC[C@@H]4[C@@]5(C)CC[C@H](O[C@@H]6O[C@H](C(=O)O)[C@@H](O)[C@H](O[C@@H]7OC[C@H](O)[C@H](O)[C@H]7O)[C@H]6O)C(C)(C)[C@@H]5CC[C@]43C)[C@@H]2C1 | 5.14 µM
CCCCCc1cc(=O)oc2c(C(CCN3CCCC(C)C3)c3ccc(OC)cc3)c(OC)cc(OC)c12 (stereo not given) | 5.33 µM

SMILES | AC50
NC(=O)CC(NC(=O)Cc1ccc(Br)cc1)c1ccc(NCc2cc(F)ccc2F)c([N+](=O)[O-])c1 (stereo not given) | 3.36 µM
O=S(=O)(c1ccc(Cl)cc1)N1CCN(Cc2ccc(O)c3ncccc23)CC1 | 6.21 µM
CC(C)(C)c1cc(CSC(=S)NC2CCS(=O)(=O)C2)c(Br)c(C(C)(C)C)c1 (stereo not given) | 3.8 µM
Cn1cccc1/C=C1\SC(=S)N(Nc2ccccc2)C1=O | 2.31 µM
Cc1c(C2(O)CCCCC2)[nH]c2ccc(C(F)(F)F)cc12 | 6.11 µM
CC(C)(C)c1ccc(C(=O)NC(=S)Nc2nc3c(s2)CCCC3)cc1 | 2.18 µM
CCCCCCOc1ccc(OC(=O)c2cccnc2)cc1 | 10.1 µM
COc1cccc(-c2cc3nc4c(c(N5CCC6(CC5)OCCO6)n3n2)CCCC4)c1 | 9.81 µM
COc1ccc(C)cc1N1C(=N)/C(=C2/Nc3ccccc3S2)C(c2ccccc2)C1=O (stereo not given) | 17.8 µM
Cn1nnnc1Sc1ncnc2scc(-c3cccc(Br)c3)c12 | 3.14 µM
O=C(CN1c2ccccc2Sc2ccccc21)NNC(=O)Nc1ccc(Cl)c(Cl)c1 | 3.46 µM
Cc1ccc(/C=N/NC(=O)c2ccc3c(c2)OCCO3)s1 | 2.49 µM
C=C(C)CNC(=S)NNC(=O)CCn1c2ccc(Cl)cc2c2cc(Cl)ccc21 | 1.8 µM
CNC(=O)NC(=O)C(C)OC(=O)c1c2c(nc3ccccc13)/C(=C/c1cccs1)CC2 (stereo not given) | 4.01 µM
Clc1cccc(CN2CCc3c([nH]c4ccccc34)C2)c1Cl | 6.15 µM
CCOC(=O)c1c(C)nc2c(c1-c1ccc(Cl)cc1)C(=O)CC(C)(C)C2 | 18.1 µM
CC1(c2ccc(O)cc2)NC(=O)N(c2ccccc2)N1 (stereo not given) | 8.69 µM
O=C(CC1Nc2ccccc2NC1=O)Nc1ccccc1 (stereo not given) | 1.04 µM
Cn1c(-c2ccsc2)c(-c2cccs2)c2cc(Br)ccc21 | 5.92 µM
Cc1ccc(OCCSc2nc(NC(C)C)nc(NC(C)C)n2)cc1 | 1.46 µM
CCN1CCN(CCCOc2ccc(-c3ccccc3)cc2)CC1 | 5.67 µM
COc1cc(/C=C/C(=O)c2ccc(NS(=O)(=O)c3ccc(C)cc3)cc2)cc(OC)c1O | 4.11 µM
COc1ccccc1C1c2ccc3ccccc3c2Oc2ncn(CCN(C)C)c(=N)c21 (stereo not given) | 4.22 µM
CC(=O)c1ccc(-c2ccc([C@H]3[C@@H]4C=CCC[C@@]4(C)C(=O)N3Cc3ccccc3)c(F)c2)cc1 | 4.17 µM
